# Experimental data taken from patent publication US6630583B1, “Antibiotics and methods of using the same” (priority 1998, dated 2003).
# “Also recorded” adds a separate entry of the source.
# Columns and labels:
# [1] = test system: leucine deprived R6 cells; experiment: Stringent response: lysis after leucine deprivation; assay type: cell-based, S. pneumoniae
# Procedure: P27 and the stringent response mechanism: The stringent response is believed to prevent the death pathway. To clarify the relationship of the stringent response to P27 activity, protein synthesis of R6 was inhibited by leucine deprivation and the effect of P27 was monitored (FIG. 19). […] The minimum concentration of penicillin required to cause penicillin dependent autolysis was equal to its MIC ([…]).
# HK mutant Van S = experiment: Lysis of HK mutant; assay type: cell-based, pneumococcus; details: 10×MIC of penicillin and/or 0.5 mM peptide
# Procedure: (§1) FIGS. 11A-11B show the effects of 10×MIC of penicillin and/or 0.5 mM of the peptide having the amino acid sequence of SEQ ID NO:2 on the lysis of clinical isolate F79 cells (FIG. 11A) and HK mutant VanS cells (FIG. 11B).
# (§2) F79 is a natural isolate of pneumococcus with mutations in the HK and the ABC transporter genes as determined by SSCP (see Example 11).
# clinical isolate A144 [2] = experiment: Cell viability (CFU/ml) one hour after addition; assay type: cell-based, pneumococcus; details: 10×MIC of penicillin, 1×MIC of vancomycin or 0.4 mM peptide
# Source text: (§3) Tolerance to penicillin occurs in bacteria that fail to trigger autolysins in response to the drug. […] This is a mechanism of resistance to these drugs and is a serious emerging medical problem. […] However, one pneumococcal strain that fails to lyse and dies slowly in response to both penicillin and vancomycin is the clinical isolate A144. This combination of traits makes A144 recalcitrant to therapy. FIG. 8 compares the activity of penicillin, vancomycin, and the peptide having the amino acid sequence of SEQ ID NO:2 against a classical sensitive strain, R6, and the tolerant strain A144. […] In contrast, strain A144 loses only 0.5 logs of viability in the same time period for all three therapies. […] Thereafter the bacteria grew more slowly than untreated controls.
# [3] = test system: pneumococcus R6 in medium lacking lysine; experiment: Phenotypic tolerance: lysis under starvation conditions; assay type: cell-based; details: for lysis response of non-growing bacteria: 10×MIC of penicillin and/or 0.5 mM peptide
# Source text: When bacteria grow slowly or stop growing due to nutrient deprivation, they become tolerant to antibiotics of all classes. […] This prolongs the course of antibiotics needed to treat these infections. For instance, many weeks of therapy are required to treat endocarditis and osteomyelitis secondary to slowly growing bacteria. An in vitro example of phenotypic tolerance is shown in FIG. 10 where pneumococcus R6 has been transferred at time 0 to a medium lacking the essential amino acid lysine. Penicillin was added 5 min after the transfer. […] This same response is seen with the peptide having the amino acid sequence of SEQ ID NO:2.
# clinical isolate F79 = experiment: Lysis of tolerant clinical isolate; assay type: cell-based, pneumococcus; details: 10×MIC of penicillin and/or 0.5 mM peptide
# Procedure: as §1, §2
# pneumococcal strain R6 = experiment: Cell growth curves (OD 620 nm) and viability of R6 with peptide; assay type: cell-based, Streptococcus pneumoniae; details: for ability to inhibit R6 growth: peptides at 100 μM added to growing R6 at OD 620 nm of 0.1
# Procedure: (§4) Cell growth curves were performed in the presence or absence of the test reagents as specified. In short, samples were prepared as follows: 1 ml of a pneumococcus culture was placed into 10 ml of prewarmed Semisynthetic (C+Y) medium. The optical density (OD) of the bacteria was monitored at 620 nm until an OD of approximately 0.1 was reached. At this point the test reagents were administered to the samples. The cells were cultured for up to 11 hours at 37° Celsius, and the OD at 620 nm was monitored every hour. A decrease in OD 620 is indicative of cell lysis, an increase is indicative of bacterial growth. No change in optical density indicates growth inhibition.
# To characterize the antibacterial activity of the peptide, pneumococcal strain R6 which is sensitive to penicillin was exposed to 0.1 mM of the peptide having the amino acid sequence of SEQ ID NO:2 at an optical density of 0.01 (bacterial density of 3×10^6 cfu/ml). Bacterial growth as measured by optical density was followed for 11 hours and viability was assessed by plating on blood agar. […] Four hours after the start of the experiment, the control strain grew from 3×10^6 to 1.2×10^7 cfu/ml. In contrast, four hours after addition of the peptide, the viable bacterial number decreased from 3×10^6 to 3×10^4 CFU/ml (10^3-fold lower than the control).
# The fact that the peptide is active in the range below 1 μg/ml places the potency of its antibacterial effect in the same range as conventional antibiotics.
# R6 with no peptide was the control and underwent exponential growth. […] This enhanced activity may result from an improvement in folding of the peptide or greater access to the bacterial target.
# RR mutant = experiment: Phenotypes of the mutants: lysis by penicillin, vancomycin, DOC; assay type: cell-based, S. pneumoniae
# Procedure: (§5) Construction of mutations: Insertion duplication mutagenesis was carried out using PCR to generate gene fragments for homologous recombination proximal to the amino terminus of OrfW1, HK or RR as follows:
# (§6) Phenotypes of the mutants: The mutants were assessed for various physiological functions characteristic of pneumococci. This included lysis by penicillin, vancomycin, and the detergent deoxycholate (DOC). Other capabilities tested included ability to undergo natural DNA transformation (Transform) and expression of the LytA protein as assessed by Western blot.
# Orf W1 mutant = experiment: as above; assay type: cell-based, S. pneumoniae
# Procedure: as §5, §6
# HK mutant = experiment: as above; assay type: cell-based, S. pneumoniae
# Procedure: as §5, §6
# [4] = test system: loss of function mutants of the ABC transporter and RR/HK; experiment: Tolerance of loss of function mutants; assay type: cell-based, S. pneumoniae; details: growth inhibitory concentrations
# Source text: As described in Example 6, using insertion duplication mutagenesis, loss of function mutations were obtained in each of the 3 open reading frames of the ABC transporter and each of the two parts of the RR/HK. […] These parallel phenotypes further implicate these topographically close genes in a common pathway.
# Vancomycin is the only antibiotic that maintains efficacy against many strains of highly antibiotic resistant bacteria, such as staphylococci, enterococci and pneumococci. Escape from antibiotic activity of vancomycin has been detected in rare staphylococci and enterococci but not in pneumococci as yet. […] Infect. Dis. J., 12:196-200 (1993); Marton et al., J. Infect. Dis., 163:542-8 (1991); and Bradley et al., Pediatr. Infect. Dis., 14:1037-1041 (1995)]. […] If they created a phenotype which was corrected by exogenous peptide, they may participate in the biological activity of the peptide. For instance, the ABC transporter may transport the peptide and the HK may serve as an extracellular receptor for the peptide which then changes the behavior of the bacteria (i.e., killing) via a RR signal.
# mutant SPSJ01 = experiment: Screen of library of loss of function mutants for antibiotic tolerance; assay type: cell-based, pneumococcus
# Source text: To detect genes that are part of the trigger pathway of the pneumococcal autolysin a library of loss of function mutants has been created, which was screened for antibiotic tolerance [Pearce et al., Mol. Microbiol., 9:1037-1050 (1993)]. […] It is reasonable to assume that this two component system represents the start of the pneumococcal autolytic trigger pathway, functioning as a relay station reacting to cell density signals or the binding of antibiotics to penicillin binding proteins. Similar to the enterococcal histidine kinase VanSB, the pneumococcal VncS works most likely as a kinase/phosphatase (see Example 1, above).
# [5] = test system: autolysin deficient strain Lyt 4-4; experiment: Growth and killing of autolysin deficient strain; assay type: cell-based, Streptococcus pneumoniae; details: Lyt 4-4, 0.1 mM peptide
# Procedure: The addition of the additives were made at time “0” hours. The strain of bacteria cultured was the Lyt-4-4 strain of Streptococcus pneumoniae which harbors a mutation leading to the loss of LytA activity. The peptide having the amino acid sequence of SEQ ID NO:2 was added as indicated at a concentration of 0.1 mM. Lyt-4-4 lacks active autolysin LytA and is therefore tolerant to penicillin treatment.
# as §4
# This antibacterial effect was also demonstrable in bacteria mutated so as to prevent autolysis by point mutation in the autolysin, as in the autolysin deficient strain Lyt 4-4. […]
# clinical isolate A144 [6] = experiment: Growth of the clinical isolate; assay type: cell-based, pneumococcus; details: 0.1 mM peptide added early in the growth cycle
# Source text: as §3
# mutant in ORF W1 = experiment: Antibacterial activity of the peptide in the mutants; assay type: cell-based, S. pneumoniae; details: mutant in ORF W1, peptide added from the outside
# Source text: (§7) To test this hypothesis the ability of the peptide having the amino acid sequence of SEQ ID NO:2 to maintain antibacterial activity in the mutants was examined. […] Furthermore, bacteria which are tolerant by virtue of phenotypic tolerance due to slow growth rate or mutations in genes other than the RR/HK will be susceptible to the antibacterial effect of the peptide having the amino acid sequence of SEQ ID NO:2.
# RR/HK mutants = experiment: as above; assay type: cell-based, S. pneumoniae; details: peptide added exogenously
# Source text: as §7
# Lyt 4-4 = experiment: Loss of chain formation (morphology); assay type: cell-based, Streptococcus pneumoniae; details: Lyt 4-4, 0.5 mM peptide in the medium
# Source text: Loss of chain formation is a measure of antibacterial activity independent of autolysin.
# Strains of pneumococcus that are tolerant to penicillin, such as Lyt 4-4, grow in long chains as compared to the diplococcal morphology of wild type pneumococci. FIG. 6A illustrates these chains, which extend to 30-50 bacteria in length.
# P27 is capable of triggering different autolytic pathways: To identify the relationship between P27 and the activation of the autolysin LytA, the bactericidal effect of the peptide on the pneumococcal mutant Lyt-4-4 (which is deficient in the major autolysin), was investigated. […] Compared to the diplococcal morphology of wild type pneumococci, pneumococci lacking an active autolysin grow in long chains.
compound,measurement,setting,value
"CC1(C)S[C@@H]2[C@H](NC(=O)Cc3ccccc3)C(=O)N2[C@H]1C(=O)O [penicillin, benzylpenicillin]",lysis of R6 under leucine deprivation,"[1]; 10×MIC of penicillin or vancomycin, 0.2 mM P27, or combination",neither the addition of 10×the MIC of penicillin or vancomycin nor the addition of 0.2 mM P27 resulted in lysis
same,minimum concentration of penicillin required to cause penicillin dependent autolysis,"[1]; leucine deprived R6, in combination with P27",0.1 mg/mL
same,lysis of Van S,HK mutant Van S,tolerance
same,loss of viability,clinical isolate A144 [2],0.5 logs
same,viability of non-growing bacteria,[3]; 10×MIC of penicillin,unaffected
same,lysis response of non-growing bacteria,[3],only a minimal response
same,lysis of F79,clinical isolate F79,tolerant
same,time to lysis of R6,"pneumococcal strain R6; growing R6, penicillin at 10×MIC",within one hour
same,Lysis by,RR mutant,sensitive
same,Lysis by,Orf W1 mutant,tolerant
same,Lysis by,HK mutant,tolerant
same,tolerance (lysis and death),[4],failed to lyse and die
same,death in the presence of antibiotic,mutant SPSJ01,failed to die
LADKRPARDYN (listed as Streptococcus pneumoniae) [Peptide 5],ability to inhibit R6 growth,pneumococcal strain R6,Exponential growth equal to untreated bacteria
MEFMRKEFHNVLSSGQLLADKRPARDYN (listed as Streptococcus pneumoniae) [SEQ ID NO:12],antibacterial activity against R6,pneumococcal strain R6,no antibacterial activity
MRKEFHNVLSAGQLLADKRPARDYN [Peptide 3],ability to inhibit R6 growth,pneumococcal strain R6,greatly enhanced antibacterial effect
MRKEFHNVLSSGQL (listed as Streptococcus pneumoniae) [Peptide 4],ability to inhibit R6 growth,pneumococcal strain R6,Exponential growth equal to untreated bacteria
MRKEFHNVLSSGQLLADKRPARDAN [Peptide 2],ability to inhibit R6 growth,pneumococcal strain R6,greatly decreased anti-bacterial activity
MRKEFHNVLSSGQLLADKRPARDYN (listed as Streptococcus pneumoniae) [Peptide 1],bactericidal activity,[5],demonstrable
same,growth of strain A144,clinical isolate A144 [6],significantly inhibits the growth of strain A144 for 4 hours
same,lysis of Van S,HK mutant Van S,not responsive
same,loss of viability,clinical isolate A144 [2],0.5 logs
same,lysis response of non-growing bacteria,[3],same response
same,growth inhibition,mutant in ORF W1,not able to inhibit growth
same,growth inhibition,RR/HK mutants,did not function to inhibit the growth
same,chain formation,Lyt 4-4; listed as SEQ ID NO.2,dissolution of the chains
same,chain formation,Lyt 4-4; listed as SEQ ID NO:2,reversion of the chains to diplococci
same,Bacterial growth as measured by optical density,"pneumococcal strain R6; R6, 0.1 mM peptide, followed for 11 hours",completely inhibited growth
same,"viable number, fold lower than the control","pneumococcal strain R6; R6, 0.1 mM peptide, four hours",10^3 fold
same,viable bacterial number,"pneumococcal strain R6; R6, 0.1 mM peptide, four hours after addition, start 3×10^6",3×10^4 CFU/ml
same,lysis,"pneumococcal strain R6; R6, 0.1 mM peptide, listed as SEQ ID NO:2",without substantial cell lysis; also recorded: No lysis was detected
same,minimum effective concentration (MEC),"pneumococcal strain R6; R6, converted with molecular weight 2940",0.15 to 0.3 µg/mL
same,minimum effective concentration,"pneumococcal strain R6; R6, optical density over 4 hours",50 to 100 nM
same,dose dependence of antibacterial activity,"pneumococcal strain R6; R6, various amounts of peptide, 4 hours",dose dependent antibacterial activity
same,ability to inhibit R6 growth,pneumococcal strain R6,significant delay in the onset of bacterial growth
deoxycholate [DOC],Lysis by,RR mutant,yes
same,Lysis by,Orf W1 mutant,no
same,Lysis by,HK mutant,yes
